Test results reported in ChEMBL document CHEMBL1129337, “Aristeromycin-5'-carboxaldehyde: a potent inhibitor of S-adenosyl-L-homocysteine hydrolase” (J Med Chem, 1996).
pKi: −log10 of the molar value.

Legend:
Adenosylhomocysteinase [1] = target: T1, Adenosylhomocysteinase (Homo sapiens, UniProt P23526); test: Binding affinity towards purified recombinant human placental S-adenosyl-L-homocysteine hydrolase
Target sequence in this assay (P23526 whole entry): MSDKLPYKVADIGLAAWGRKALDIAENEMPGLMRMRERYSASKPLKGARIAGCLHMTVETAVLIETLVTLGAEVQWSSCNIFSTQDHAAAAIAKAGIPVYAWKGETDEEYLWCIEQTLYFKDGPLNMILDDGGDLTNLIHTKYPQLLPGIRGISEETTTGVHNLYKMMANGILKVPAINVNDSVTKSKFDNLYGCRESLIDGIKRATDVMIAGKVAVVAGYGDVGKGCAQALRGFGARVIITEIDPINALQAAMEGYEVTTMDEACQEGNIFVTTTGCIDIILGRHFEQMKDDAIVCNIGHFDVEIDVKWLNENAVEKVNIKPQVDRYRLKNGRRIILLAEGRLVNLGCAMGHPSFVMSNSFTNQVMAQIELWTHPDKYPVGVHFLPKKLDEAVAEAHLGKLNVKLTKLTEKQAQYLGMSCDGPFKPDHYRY

Adenosylhomocysteinase [2] = target: T1, Adenosylhomocysteinase
Target sequence in this assay (P23526 2-432 limits assumed): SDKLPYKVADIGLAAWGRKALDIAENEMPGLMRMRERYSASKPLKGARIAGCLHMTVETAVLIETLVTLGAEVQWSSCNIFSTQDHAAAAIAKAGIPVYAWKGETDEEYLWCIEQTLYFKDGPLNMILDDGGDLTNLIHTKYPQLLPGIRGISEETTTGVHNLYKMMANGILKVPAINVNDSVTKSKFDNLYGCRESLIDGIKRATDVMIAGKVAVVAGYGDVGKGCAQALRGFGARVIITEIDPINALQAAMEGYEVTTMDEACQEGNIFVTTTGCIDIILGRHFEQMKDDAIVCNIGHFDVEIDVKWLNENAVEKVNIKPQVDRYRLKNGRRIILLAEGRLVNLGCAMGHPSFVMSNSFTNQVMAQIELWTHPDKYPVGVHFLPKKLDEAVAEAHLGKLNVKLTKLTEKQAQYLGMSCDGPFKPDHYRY
Description: Apparent inactivation rate constant (k2) for S-adenosyl-L-homocysteine hydrolase

Nc1ncnc2c1ncn2[C@@H]1C[C@H](C=O)[C@@H](O)[C@H]1O
pKi (Adenosylhomocysteinase [1]): 5.35 | k2 (Adenosylhomocysteinase [2]): 0.37 min⁻¹

Nc1ncnc2c1ncn2[C@@H]1O[C@@H](C=O)[C@@H](O)[C@H]1O
pKi (Adenosylhomocysteinase [1]): 7.41 | k2 (Adenosylhomocysteinase [2]): 0.65 min⁻¹

Nc1ncnc2c1ncn2[C@@H]1C[C@@H](C=O)[C@@H](O)[C@H]1O
pKi (Adenosylhomocysteinase [1]): 6.56 | k2 (Adenosylhomocysteinase [2]): 1.2 min⁻¹

Nc1ncnc2c1ncn2[C@@H]1O[C@H](C=O)[C@@H](O)[C@H]1O
pKi (Adenosylhomocysteinase [1]): 7.37 | k2 (Adenosylhomocysteinase [2]): 0.22 min⁻¹
